Measurements as given in patent publication US20220160798A1 (priority 2019, published 2022).

Assays:
ICR mice [1] = assay: Passive avoidance test, scopolamine-induced dementia; format: in vivo
Experimental: (§1) The deterioration of cognitive ability of Aβ1-42 (Amyloid Beta 1-42) was evaluated in 4-week-old male mice. ICR mice (Bio Link, Eumseong-gun, Chungbuk, Korea) were purchased, adapted to an experimental animal room for one week, and randomly consisted of 6 mice in each group. As experimental groups, a group administered with the Spirulina extract (hereinafter, SM70EE) produced by Example 1 by concentration and a group administered with chlorophyll a were used. As a control group, a group without treating a Spirulina extract, and as a comparative group, a group administered with scopolamine causing dementia and a group administered with donepezil as a dementia therapeutic agent were used. During the adaptation period, the feed and water were freely supplied without limitation, and the temperature of 22±2° C. and the humidity of 50±10% were maintained, and the contrast was adjusted to a period of 12 hours (09:00 to 21:00).
An avoidance box (40×20×20 cm) of a passive avoidance measuring device was divided into a light box and a dark box, and a door was installed between the rooms so that the experimental mice moved. […]
After 24 hours, the same test was conducted, and the escape latency time while the experimental mice moved was measured. […]

ICR mice [2] = assay: Morris water maze test, scopolamine-induced dementia; format: in vivo
Experimental: as §1, with “During the adaptation period, the feed and water were freely supplied without limitation, and the temperature of 22±2° C. and the humidity of 50±10% were maintained, and the contrast was adjusted to a period of 12 hours (09:00 to 21:00).” left out
In Experimental Example above, a passive avoidance analysis evaluation test was conducted by applying a Morris's method. […] For adaptation, only the swimming practice was performed for 60 seconds without a platform on the first day of the experiment, a test trial was performed for 4 days in the pool disposed with the platform from the second day, and then escape latency time which was time taken for experimental mice administered with a drug to escape on the platform was measured. […]

With `C=Cc1c(C)c2cc3nc(c4c5[n-]c(cc6nc(cc1[n-]2)C(C)=C6CC)c(C)c5C(=O)[C@@H]4C(=O)OC)[C@@H](CCC(=O)OC/C=C(\C)CCC[C@H](C)CCC[C@H](C)CCCC(C)C)[C@@H]3C.[Mg+2]` [chlorophyll a] the latency time (ICR mice [1]; 10 mg/kg oral, scopolamine 1 mg/kg s.c., vs scopolamine group) was “increased” and the escape latency time (ICR mice [2]; 10 mg/kg oral, scopolamine 1 mg/kg s.c.) was “decreased”.

For `CN1[C@@H]2C[C@@H](OC(=O)[C@H](CO)c3ccccc3)C[C@H]1[C@@H]1O[C@@H]12` [scopolamine], the latency time (ICR mice [1]; scopolamine only, 1 mg/kg s.c., vs control group) was “significantly reduced” and the escape latency time (ICR mice [2]; scopolamine only, 1 mg/kg s.c.) was “increased”.
